Values belong to the molecule of their own block, whether it stands above or below them. Ends that are not written are not given here. PGA = not defined here
Assays:
[1] = tested on: NCAM-expressing Mel-526 human melanoma cells; test: Binding to NCAM-expressing Mel-526 cells; type: cell-based
[2] = tested on: HUVECs; test: HUVEC proliferation assay (MTT, 72 hours); type: cell-based, human
Protocol: Human umbilical vein endothelial cells (HUVECs) were isolated from umbilical cords and were cultured in EGM-2 media.
(§1) After incubation cell viability was determined by MTT assay.
(§2) For evaluating anti-proliferative activity of a combination of PTX and DOX, cells were treated with varying concentrations of DOX with a set concentration of PTX or varying concentrations of PTX with a set concentration of DOX.
Same procedure was followed for other drugs and combination treatments.
(§3) In an exemplary procedure, selected inhibition concentration values (e.g., IC40, IC60 and IC80) of PTX, DOX and combinations thereof from a respective cell proliferation assay were collected. The selected inhibition concentration values of DOX and PTX were marked on X and Y axes respectively and a line which represents additive effect was drawn between each inhibitory concentration (IC). The combination index (CI) of each treatment was calculated according to the classic isobologram equation CI=[(D)1/(Dx)1]+[(D)2/(Dx)2].
The effect of PTX at various concentrations (0.0001, 0.001, 0.01, 0.1, 1, 10, 100, 1000, and 10,000 nM), and of doxorubicin at various concentrations (0.001, 0.001, 0.01, 0.1, 1, 10, 100, 1000, 10,000, 100,000 nM) on the proliferation of HUVEC p3 cells was tested. The obtained data is presented in FIG. 1A for PTX and in FIG. 1B for DOX.
For evaluating the effect of the combination treatment, 0.1 or 1 nM DOX with various concentrations of PTX and 0.1 or 1 nM PTX with various concentrations of DOX were tested.
The effect of PTX at various concentrations, TNP-470 at various concentrations and of various combinations of a set concentration of PTX and variable concentrations of TNP-470 and a set concentration of TNP-470 and variable concentrations of PTX, on proliferation of HUVECs, was tested. Similar assays were performed in the presence of 10,000 nM alendronate. The obtained data is presented in FIG. 7A (no alendronate) and in FIG. 7B (in the presence of alendronate).
The effect of the PGA-PTX-DOX conjugate (Route 1, see, FIG. 18) on HUVECs proliferation was tested and compared to the free drugs, each alone and in combination.

[3] = tested on: MDA-MB-231 cells; test: MDA-MB-231 cell proliferation assay (72 hours); type: cell-based, human; details: for IC20 / IC 40 / IC 60: MDA-MB-231, single drug
Protocol: Human MDA-MB-231 cells were purchased from American Tissue Culture Collection (ATCC), and were cultured in DMEM supplemented with 10% FBS, 100 μg/ml penicillin, 100 U/ml streptomycin, 12.5 U/ml nystatin. All Cells were grown at 37° C., 5% CO2.
(§4) In an exemplary procedure, cells were plated onto 96-well plates in appropriate complete medium for each cell line as described above, and incubated for 24 hours (37° C.; 5% CO2). On the following day cells were treated with e.g., paclitaxel at various concentrations (e.g., 0.0001, 0.001, 0.01, 0.1, 1, 10, 100, 1000, 10,000 nM) or, e.g., doxorubicin at various concentrations (e.g., 0.001, 0.001, 0.01, 0.1, 1, 10, 100, 1000, 10,000, 100,000 nM) for 72 hours. After incubation cell viability was determined by MTT assay.
as §2
Selected inhibition concentration values (e.g., IC50, IC40, IC60 and IC80 values (growth inhibition by 50, 40, 60 and 80% respectively) were derived from the obtained growth charts.
as §3
The effect of PTX, DOX and combinations thereof on the proliferation of human MDA-MB-231 cells was tested.
FIG. 6A presents the results obtained for PTX and DOX, each alone, at various concentrations within a range of 0.01-10000 nM, and for various concentrations of PTX with 20 nM DOX, and for various concentrations of DOX with 1 nM PTX. […] Data represents mean±SD.
In order to evaluate the combination treatment effect, data from combination treatment results were collected, analyzed and calculated according to CI equations. Combination treatments I (PTX+DOX 20 nM) and II (DOX+PTX 1 nM) inhibited MDA-MB-231 cells proliferation of IC 20, 40, 60 at 0.8, 4, 25 and 4, 150, 700 nM respectively.
The activity of a PGA-PTX-DOX conjugate (Route 2, see, FIG. 19D) was examined in vitro on proliferation of MDA-MB-231 human breast cancer cells. Cells were incubated with the conjugates PGA-PTX-DOX, PGA-PTX, PGA-DOX and combination of PGA-PTX and PGA-DOX (in the same ratio as on the PGA-PTX-DOX conjugate), the free drugs PTX, DOX and their combination (in the same ratio as on the PGA-PTX-DOX conjugate) and with PGA for 72 hours.

[4] = tested on: ES-2 ovarian carcinoma cells; test: ES-2 cell proliferation assay (72 hours); type: cell-based, human
Protocol: ES-2 human ovarian carcinoma cells were purchased from the ATCC.
as §1, §3
The effect of DOX and PTX combinations on viability of ES2 and Saos2 cells was examined. Cells were treated with PTX alone, DOX alone, varying concentrations of DOX with a set concentration of PTX (10 or 50 nM for ES2, 1 nM for Saos2) or varying concentrations of PTX with a set concentration of DOX (10 or 50 nM). IC20, IC40 and IC60 values (growth inhibition by 20, 40 and 60% respectively) were derived from the growth charts and combination index (CI) values were calculated.
The activity of PGA-PTX-DOX conjugate (Route 1, see, FIG. 18) and of PGA-PTX-DOX conjugate (Route 2, see, FIG. 19D) was examined in vitro on proliferation of ES-2 ovarian carcinoma cells.
(§5) The effect of DOX and PTX treatments on proliferation of ES2 and SK N MC cells after sorting to NCAM+/− and/or on unsorted cells was examined, to test whether NCAM+ cells are more resistant to chemotherapeutic drugs.

[5] = tested on: SK N MC cells; test: SK N MC cell proliferation assay after sorting to NCAM+/-; type: cell-based
Protocol: as §4
Cells were harvested and labeled as described above, and resuspended in the appropriate cell culture medium (according to cell type) with 5% FBS. Cells were filtrated with 100 μm cell strainer before sorting. Sorted cells were collected into tubes containing complete medium with 0.5 mg/ml gentamycin (Biological Industries, Israel). All work was done in sterile conditions.
as §5

[6] = tested on: MDA-MB-231 cells; test: Internalization and intracellular release of DOX, confocal microscopy; type: cell-based, human; details: 400 nM DOX-equivalent
Protocol: Internalization and intracellular release of DOX from the conjugates was evaluated by confocal microscopy (Leica SP5). MDA-MB-231 cells were incubated with free DOX and DOX-containing conjugates (PGA-DOX, PGA-PTX-DOX) at 400 nM equivalent concentrations for 20 minutes, 2, 6 or 24 hours. Following incubation, cells were washed, fixed with 4% PFA and mounted on glass slides using Prolong® Gold antifade reagent with DAPI (4′-6-Diamidino-2-phenylindole) (Invitrogen) for nucleus. DOX was excited at 488 nm and its emission was recorded at 550-700 nm.

[7] = tested on: ES2 cells; test: Binding to ES2 cells (FACS); type: cell-based, human
Protocol: Cells were washed with PBS, harvested using a cell scraper and labeled by incubation with APC-conjugated CD-56 antibody (Biolegend) for 45 min at 4° C. in the dark. Cells were washed three times with PBS and filtrated with 100 μm cell strainer (BD Falcon).
Binding of C3 (SEQ ID NO:3) to ES2 cells, and competition of binding of the NCAM-specific antibody APC-conjugated anti-human CD56 (NCAM) (BioLegend) and bFGF was examined by FACS.
PGA and PGA-C3 were labeled with FITC on the N-terminal of the PGA chain. Binding to ES-2 cells was examined by FACS.

[8] = tested on: Saos-2 cells; test: NTP binding to Saos2 cells (confocal microscopy); type: cell-based, human; details: fluorescently labeled peptides
Protocol: Cell specificity and uptake of the fluorescently labeled peptides was monitored utilizing a Zeiss Meta LSM 510 confocal imaging system. Cells were plated on glass slides and incubated overnight. The following day cells were incubated with 100 μM of CF-NTP or CF-scrambled peptide for 30 minutes at 37° C., washed several times with PBS, fixated with 4% paraformaldehyde, stained with Hoechst stain and mounted on slides. In order to examine intracellular trafficking of the peptide, cells were incubated with the peptides in serum free medium, washed several times with cold PBS and incubated with […] AlexaFluor 594 human transferrin for 1 h at 37° C. Cells were washed several times with PBS, fixated with 4% PFA, stained with Hoechst stain and mounted on slides.
Binding of NTP (SEQ ID NO:1) to Saos-2 cells, compared to binding of sNTP (SEQ ID NO:2), was examined by confocal microscopy. FITC-labeled targeting peptides were used. […] In experiments with transferrin, peptide was seen as intracellular aggregates or vesicles, though not colocalized with transferrin.

Molecule: GASKKPKRNIKA [C3, NCAM targeting peptide C3 with added N-terminal glycine]
binding [1]: 50%

IC50 ([4]; ES2 cells sorted NCAM+): 300 nM
IC50 ([4]; ES2 cells sorted NCAM−): 150 nM
IC50 ([4]; ES2 cells unsorted): 250 nM
IC50 ([4]; ES-2, 72 hours, conjugates of Route 2 (FIG. 19D), three separate experiments): 25 nM
Molecule: COc1cccc2c1C(=O)c1c(O)c3c(c(O)c1C2=O)C[C@@](O)(C(=O)CO)C[C@@H]3O[C@H]1C[C@H](N)[C@H](O)[C@H](C)O1 [DOX, doxorubicin]
IC50 ([2]; HUVEC p3, PGA-PTX-DOX is the Route 1 conjugate (FIG. 18)): 7 nM
IC50 ([2]; HUVEC proliferation, drug alone or varied with a set concentration of the other drug): 40 nM
IC20 [3]: 60 nM
IC 40 [3]: 250 nM
IC 60 [3]: 950 nM
IC50 ([5]; SK N MC cells sorted NCAM+): 90 nM
IC50 ([5]; SK N MC cells sorted NCAM−): 40 nM
IC50 ([5]; SK N MC cells unsorted): 50 nM
cell internalization [6]: rapidly internalized in the cells
incubation time after which DOX is accumulated in the nucleus [6]: 6 h

Molecule: PGA-C3: PGA conjugated to C3 peptide (SEQ ID NO:3) through the N-terminal amine ({PGA}-GASKKPKRNIKA; reading uncertain)
binding to cells ([7]; ES-2, FITC-labeled polymers): bound more strongly than non-targeted PGA and similarly to free C3 peptide

Molecule: GASKKPAANIKA [C3ala, control peptide]
binding [1]: 20%

IC50 ([3]; Homo sapiens, MDA-MB-231, 72 hours, PTX- and DOX-equivalent concentrations, Route 2 conjugate (FIG. 19D)): 2 nM
IC50 ([4]; Homo sapiens, ES-2, ES2 cells sorted NCAM+): 70 nM
IC50 ([4]; Homo sapiens, ES-2, ES2 cells sorted NCAM−): 90 nM
IC50 ([4]; Homo sapiens, ES-2, ES2 cells unsorted): 70 nM
IC50 ([4]; Homo sapiens, Ovarian carcinoma cell, 72 h, ES-2, 72 hours, conjugates of Route 2 (FIG. 19D), three separate experiments): 6 nM
Molecule: CC(=O)O[C@H]1C(=O)[C@@]2(C)[C@H]([C@H](OC(=O)c3ccccc3)[C@]3(O)C[C@H](OC(=O)[C@H](O)[C@@H](NC(=O)c4ccccc4)c4ccccc4)C(C)=C1C3(C)C)[C@]1(OC(C)=O)CO[C@@H]1C[C@@H]2O [PTX, Paclitaxel]
IC50 ([2]; Homo sapiens, HUVEC, HUVEC p3, PGA-PTX-DOX is the Route 1 conjugate (FIG. 18)): 1 nM
IC50 ([2]; Homo sapiens, HUVEC, HUVEC proliferation, drug alone or varied with a set concentration of the other drug): 7 nM
IC20 ([3]; Homo sapiens): 2.5 nM
IC 40 [3]: 7 nM
IC 60 [3]: 100 nM
IC50 ([5]; Homo sapiens, SK N MC cells unsorted): 45 nM

Molecule: CF-labeled C3: C3 (SEQ ID NO:3) labeled at the N-terminal with 5(6)-carboxyfluorescein ({5(6)‑carboxyfluorescein}-GASKKPKRNIKA)
binding to cells ([7]; ES2, CF-labeled peptide alone): bound at levels much higher than NCAM expression
binding when incubated with NCAM antibody or bFGF ([7]; ES2, competition): its binding decreased

Molecule: GESDDEND [scrambled peptide]
binding to cells [8]: does not

Molecule: GDDSDEEN [NTP, NCAM-targeting peptide]
binding to cells [8]: binds to the cells

Source: US10155047B2, “Polymers having therapeutically active agents conjugated thereto, processes of preparing same and uses thereof” (Ramot at Tel-Aviv University Ltd., priority 2012, dated 2018)
